Laboratory results taken from patent publication US11008340B2, “Modulators of ROR-gamma” (Vitae Pharmaceuticals, LLC, priority 2015, dated 2021).
pIC50, pKi: −log10 of the molar value. Read-outs that look alike come from different tables or passages of the source.

Experiments:
[1] = target: T1, recombinant RORγ Ligand Binding Domain (LBD) protein (Homo sapiens, UniProt P51449); assay: Radio-Ligand RORγ Binding Assay (Assay 1); settings: radio-ligand competition, RORγ LBD, read-out: Avg ROR Bind Ki
T1 construct: 6×His; GST
T1 sequence (P51449 269-508 limits assumed): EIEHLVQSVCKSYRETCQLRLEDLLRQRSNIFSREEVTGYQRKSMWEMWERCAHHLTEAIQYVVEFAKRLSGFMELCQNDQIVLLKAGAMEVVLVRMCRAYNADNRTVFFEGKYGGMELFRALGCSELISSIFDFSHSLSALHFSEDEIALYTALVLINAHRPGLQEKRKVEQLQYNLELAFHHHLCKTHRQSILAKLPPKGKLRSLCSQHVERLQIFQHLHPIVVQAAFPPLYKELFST
How it was run: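 Cell-free SPA competition between compound and 25-hydroxy[26,27-^3H]-cholesterol for 6×His-GST-tagged RORγ LBD in 50 mM HEPES pH 7.4 with NaCl, MgCl2, glycerol, CHAPS, octylglucoside and DTT. Mix was shaken 20 min, held 10 min at rt, then read after poly-Lys YSi beads. IC50 came from a four-parameter fit, and Ki from radioligand KD.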

[2] = target: T2, full-length RORγt in Jurkat cells (Homo sapiens, UniProt P51449); assay: RORγt 5×RORE Assay in Jurkat Cells (Assay 2); type: cell-based; settings: 5×RORE luciferase reporter
T2 construct: transcriptional activity of the full-length RORγt in Jurkat cells; host or cells: Jurkat cells (ATCC TIB-152)
T2 sequence (P51449 1-497 isoform P51449-2): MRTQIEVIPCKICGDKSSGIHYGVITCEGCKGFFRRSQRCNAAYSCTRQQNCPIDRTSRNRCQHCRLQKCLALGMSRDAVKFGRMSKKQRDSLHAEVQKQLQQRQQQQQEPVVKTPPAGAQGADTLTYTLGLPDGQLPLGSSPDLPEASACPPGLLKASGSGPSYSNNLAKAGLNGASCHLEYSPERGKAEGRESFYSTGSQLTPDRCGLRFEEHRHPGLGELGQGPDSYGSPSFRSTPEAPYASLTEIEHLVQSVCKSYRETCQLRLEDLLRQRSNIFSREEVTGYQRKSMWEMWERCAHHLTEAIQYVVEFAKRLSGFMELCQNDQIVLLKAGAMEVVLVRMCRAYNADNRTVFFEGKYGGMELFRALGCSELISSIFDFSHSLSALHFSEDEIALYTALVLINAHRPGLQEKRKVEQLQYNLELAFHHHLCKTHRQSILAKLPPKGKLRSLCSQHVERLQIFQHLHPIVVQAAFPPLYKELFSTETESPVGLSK
How it was run: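 Jurkat cells transiently co-transfected with full-length RORγt expression plasmid and secreted NanoLuc reporter driven by 5×RORE; plated in phenol-red-free RPMI with 10% delipidated FBS. Compounds added at 0.1% DMSO final, 16-18 hrs at 37° C; supernatant luciferase read with NanoGlo as measure of inverse agonism.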

[3] = head without unit (Tables 15, 17)
[4] = head without unit (Tables 15, 17), read-out: Avg ROR γt/5x IC50
[5] = 25-hydroxy [26,27-3H]-cholesterol
[6] = Table 20, read-out: Avg ROR γt/5x IC5

pKi [1, 3] | pIC50 [2, 4] | pKi [1, 5] | pIC50 [2, 6] | pIC50 ([2]; read-out: Avg ROR γt/5x IC50) | Structure (SMILES)
– | – | > 7.00 | < 6.00 | – | CCS(=O)(=O)c1ccc(CNC(=O)c2ccc3c(c2)CN(c2ncc(F)cn2)C[C@@H]3C(C)C)cc1 (single isomer, unassigned) [Hy7-1.2]
> 7.00 | < 6.00 | – | – | – | CCS(=O)(=O)c1ccc(CNC(=O)c2cnc3c(c2)CCN(Cc2ccc(F)cc2)C3C(C)C)cc1 (single isomer, unassigned) [Hy2B-6.1]
– | – | > 7.00 | < 6.00 | – | CCS(=O)(=O)c1ccc(CNC(=O)c2ccc3c(c2)CN(c2ncc(C4CC4)cn2)C[C@@H]3C(C)C)cc1 (single isomer, unassigned) [Hy7-4.2]
– | – | > 7.00 | – | 6.00 to 7.00 | CCS(=O)(=O)c1ccc(CNC(=O)c2ccc3c(c2)C(C)(C)CN(Cc2cnc(C)cn2)[C@H]3C(C)C)cc1 (single isomer, unassigned) [Hy2A-22.1]
– | – | > 7.00 | – | > 7.00 | CCS(=O)(=O)c1ccc(CNC(=O)c2ccc3c(c2)C(C)(C)CN(Cc2ccc(C#N)cc2)C3C(C)C)cc1 (single isomer, unassigned) [Hy2A-23.1]
– | – | > 7.00 | > 7.00 | – | CC[C@@H]1CN(c2ccc(C(F)(F)F)cn2)Cc2cc(C(=O)NCc3ccc(S(=O)(=O)CC)cc3)ccc21 (single isomer, unassigned) [Hy7-8.1]
– | – | > 7.00 | – | 6.00 to 7.00 | CCOC(=O)c1cnc(N2CCc3cc(C(=O)NCc4ccc(S(=O)(=O)CC)cc4)ccc3[C@@H]2C(C)C)nc1C(F)(F)F (single isomer, unassigned) [Hy2A-5.1]
> 7.00 | 6.00 to 7.00 | – | – | – | CCS(=O)(=O)c1ccc(CNC(=O)c2cnc3c(c2)CCN(Cc2ccc(Cl)cc2)C3C(C)C)cc1 (single isomer, unassigned) [Hy2B-8.1]
– | – | 6.00 to 7.00 | – | 6.00 to 7.00 | CCOC(=O)c1cnc(N2CCc3cc(C(=O)NCc4ccc(S(=O)(=O)CC)cc4)ccc3C2C(C)C)nc1C(F)(F)F (racemic) [Hy2A-5, ethyl 2-(6-((4-(ethylsulfonyl)benzyl)carbamoyl)-1-isopropyl-3,4-dihydroisoquinolin-2(1H)-yl)-4-(trifluoromethyl)pyrimidine-5-carboxylate]
> 7.00 | 6.00 to 7.00 | – | – | – | CCS(=O)(=O)c1ccc(CNC(=O)c2cnc3c(c2)CCN(Cc2ccc(C#N)cc2)C3C(C)C)cc1 (single isomer, unassigned) [Hy2B-7.1]

Second part, the molecule before the results:

Structure (SMILES) | pKi [1, 3] | pIC50 [2, 4] | pKi [1, 5] | pIC50 [2, 6] | pIC50 ([2]; read-out: Avg ROR γt/5x IC50)
CCS(=O)(=O)c1ccc(CNC(=O)c2cnc3c(c2)CCN(C[C@H]2CC[C@H](C(F)(F)F)CC2)[C@H]3C(C)C)nc1 (single isomer, unassigned) [Hy2B-10.1] | 6.00 to 7.00 | 6.00 to 7.00 | – | – | –
CCS(=O)(=O)c1ccc(CNC(=O)c2ccc3c(c2)CN(c2ncc(-c4ccc(=O)n(C)c4)cn2)C[C@H]3C(C)C)cc1 (single isomer, unassigned) [Hy7-24.1] | – | – | > 7.00 | > 7.00 | –
CCS(=O)(=O)c1ccc(CNC(=O)c2ccc3c(c2)CN(c2ncc(-c4ccn(C)c(=O)c4)cn2)C[C@H]3C(C)C)cc1 (single isomer, unassigned) [Hy7-25.1] | – | – | > 7.00 | 6.00 to 7.00 | –
CCS(=O)(=O)c1ccc(CNC(=O)c2ccc3c(OCc4ccc(C(F)(F)F)cc4)nccc3c2)cc1 [Hy1A-4, N-(4-(ethylsulfonyl)benzyl)-1-((4-(trifluoromethyl)benzyl)oxy)isoquinoline-6-carboxamide] | – | – | > 7.00 | – | 6.00 to 7.00
CCC1CN(C2CCC(C(F)(F)F)CC2)Cc2cc(C(=O)NC(CO)c3ccc(S(=O)(=O)CC)cc3)ccc21 (single isomer, unassigned) [Hy7-35.2] | – | – | > 7.00 | < 6.00 | –
CCS(=O)(=O)c1ccc(CNC(=O)c2ccc3c(c2)CN(c2ncc(C(F)(F)F)cn2)C[C@H]3C(F)(F)F)cc1 (single isomer, unassigned) [Hy7-36.1] | – | – | > 7.00 | > 7.00 | –
CCS(=O)(=O)c1ccc([C@H](CO)NC(=O)c2cc3ccnc(OCc4ccc(C(F)(F)F)cc4)c3n2C)cc1 [Hy4-4, (R)-N-(1-(4-(ethylsulfonyl)phenyl)-2-hydroxyethyl)-1-methyl-7-((4-(trifluoromethyl)benzyl)oxy)-1H-pyrrolo[2,3-c]pyridine-2-carboxamide] | > 7.00 | 6.00 to 7.00 | – | – | –
CCS(=O)(=O)c1ccc(CNC(=O)c2ccc3c(c2)CN(c2ncc(-c4ccnc(OC)c4)cn2)C[C@H]3C(C)C)cc1 (single isomer, unassigned) [Hy7-23.1] | – | – | > 7.00 | > 7.00 | –
CC[C@H]1CN(c2ncc(C(F)(F)F)cc2C)Cc2cc(C(=O)NCc3ccc(S(=O)(=O)CC)cc3)ccc21 (single isomer, unassigned) [Hy7-13.2] | – | – | > 7.00 | 6.00 to 7.00 | –
CCS(=O)(=O)c1ccc([C@H](CO)NC(=O)c2ccc3c(OCc4ccc(F)cc4)nc(C)cc3c2)cc1 [Hy1A-13, (R)-N-(1-(4-(ethylsulfonyl)phenyl)-2-hydroxyethyl)-1-((4-fluorobenzyl)oxy)-3-methylisoquinoline-6-carboxamide] | – | – | > 7.00 | – | 6.00 to 7.00
CC[C@@H]1CN(c2ncc(C(F)(F)F)cn2)Cc2cc(C(=O)N[C@@H](CO)c3ccc(S(=O)(=O)CC)cn3)ccc21 (single isomer, unassigned) [Hy7-18.1] | – | – | > 7.00 | > 7.00 | –
CCS(=O)(=O)c1ccc([C@H](CO)NC(=O)c2ccc3c(OCC4CCN(CC(F)(F)F)CC4)nc(C)cc3c2)cc1 [Hy1A-19, (R)-N-(1-(4-(ethylsulfonyl)phenyl)-2-hydroxyethyl)-3-methyl-1-((1-(2,2,2-trifluoroethyl)piperidin-4-yl)methoxy)isoquinoline-6-carboxamide] | – | – | > 7.00 | – | 6.00 to 7.00
CCS(=O)(=O)c1ccc(CNC(=O)c2ccc3c(OC4CCC(C(F)(F)F)CC4)nccc3c2)cc1 (single isomer, unassigned) [Hy1A-3.2, N-(4-(ethylsulfonyl)benzyl)-1-(((1r,4r)-4-(trifluoromethyl)cyclohexyl)oxy)isoquinoline-6-carboxamide] | – | – | > 7.00 | – | < 6.00
CC[C@H]1CN(c2ncc(C(F)(F)F)cc2C)Cc2cc(C(=O)N[C@@H](CO)c3ccc(S(=O)(=O)CC)cc3)ccc21 (single isomer, unassigned) [Hy7-22.2] | – | – | > 7.00 | 6.00 to 7.00 | –
CC[C@@H]1CN(c2ncc(C3CC3)cn2)Cc2cc(C(=O)N[C@@H](CO)c3ccc(S(=O)(=O)CC)cc3)ccc21 (single isomer, unassigned) [Hy7-11.1] | – | – | > 7.00 | 6.00 to 7.00 | –
CCS(=O)(=O)c1ccc([C@@H](CO)NC(=O)c2ccc3c(OC[C@H]4CC[C@H](C(F)(F)F)CC4)nc(C)cc3c2)cc1 [Hy1A-16, N-((S)-1-(4-(ethylsulfonyl)phenyl)-2-hydroxyethyl)-3-methyl-1-(((1r,4S)-4-(trifluoromethyl)cyclohexyl)methoxy)isoquinoline-6-carboxamide] | – | – | > 7.00 | – | > 7.00
CCc1cc2cc(C(=O)NCc3ccc(S(=O)(=O)CC)cc3)ccc2c(OC[C@H]2CC[C@H](C(F)(F)F)CC2)n1 [Hy1A-20, 3-ethyl-N-(4-(ethylsulfonyl)benzyl)-1-(((1r,4r)-4-(trifluoromethyl)cyclohexyl)methoxy)isoquinoline-6-carboxamide] | – | – | > 7.00 | – | > 7.00
CCS(=O)(=O)c1ccc(CNC(=O)c2ccc3c(OC[C@H]4CC[C@H](C(F)(F)F)CC4)nccc3c2)cc1 [Hy1A-5, N-(4-(ethylsulfonyl)benzyl)-1-(((1r,4r)-4-(trifluoromethyl)cyclohexyl)methoxy)isoquinoline-6-carboxamide] | – | – | > 7.00 | – | 6.00 to 7.00
CCS(=O)(=O)c1ccc([C@H](CO)NC(=O)c2ccc3c(OC[C@H]4CC[C@H](C(F)(F)F)CC4)nc(Cl)cc3c2)cc1 [Hy1A-11, 3-chloro-N-((R)-1-(4-(ethylsulfonyl)phenyl)-2-hydroxyethyl)-1-(((1r,4R)-4-(trifluoromethyl)cyclohexyl)methoxy)isoquinoline-6-carboxamide] | – | – | > 7.00 | – | > 7.00
CCS(=O)(=O)c1ccc(CNC(=O)c2ccc3c(c2)CN(c2ncc(C(F)(F)F)cn2)C[C@@H]3C(F)(F)F)cc1 (single isomer, unassigned) [Hy7-36.2] | – | – | > 7.00 | < 6.00 | –
